Experiments:
Assay type in all cases: in vivo
corn (Zea mays) = experiment: Test B pre/postemergence; details: for Corn plant response rating: Postemergence; for Plant response rating, Corn: Preemergence
How it was run: (§1)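 Greenhouse whole-plant test; surfactant-containing non-phytotoxic solvent formulation; pre- and postemergence applications made simultaneously; post plants 2–18 cm, 1- to 4-leaf; visual scoring at 13–15 days on 0–100 scale relative to controls.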

[1] = system: velvetleaf (Abutilon theophrasti); experiment: Test B pre/postemergence; details: for Velvetleaf plant response rating: Postemergence; for Plant response rating, Velvetleaf: Preemergence
How it was run: as §1

[2] = system: cocklebur (Xanthium strumarium); experiment: Test B pre/postemergence; details: for Cocklebur plant response rating: Postemergence; for Plant response rating, Cocklebur: Preemergence
How it was run: as §1

[3] = system: pigweed (Amaranthus retroflexus); experiment: Test B pre/postemergence; details: for Pigweed plant response rating: Postemergence; for Plant response rating, Pigweed: Preemergence
How it was run: as §1

[4] = system: lambsquarters (Chenopodium album); experiment: Test B pre/postemergence; details: for Lambsquarters plant response rating: Postemergence; for Plant response rating, Lambsquarters: Preemergence
How it was run: as §1

[5] = system: crabgrass (Digitaria sanguinalis); experiment: Test B pre/postemergence; details: for Crabgrass plant response rating: Postemergence; for Plant response rating, Crabgrass: Preemergence
How it was run: as §1

[6] = system: Surinam grass (Brachiaria decumbens); experiment: Test B pre/postemergence; details: for Surinam Grass plant response rating: Postemergence; for Plant response rating, Surinam Grass: Preemergence
How it was run: as §1

[7] = system: morningglory (Ipomoea coccinea); experiment: Test B pre/postemergence; details: for Morningglory plant response rating: Postemergence; for Plant response rating, Morningglory: Preemergence
How it was run: as §1

[8] = system: barnyardgrass (Echinochloa crus-galli); experiment: Test B pre/postemergence; details: for Barnyardgrass plant response rating: Postemergence; for Plant response rating, Barnyardgrass: Preemergence
How it was run: as §1

[9] = system: giant foxtail (Setaria faberii); experiment: Test B pre/postemergence; details: for Foxtail, Giant plant response rating: Postemergence; for Plant response rating, Foxtail, Giant: Preemergence
How it was run: as §1

[10] = system: wheat (Triticum aestivum); experiment: Test B pre/postemergence; details: for Wheat plant response rating: Postemergence; for Plant response rating, Wheat: Preemergence
How it was run: as §1

[11] = system: duck salad (Heteranthera limosa); experiment: Test B flooded paddy test; details: Flood, scale 0 to 100
How it was run: (§2)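 Visual injury scoring (0 = no effect, 100 = complete control) versus controls made 13 to 15 days after treatment in the greenhouse. Test species were grown in flooded paddy to the 2-leaf stage: rice, barnyardgrass, umbrella sedge, duck salad.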

rice (Oryza sativa) = experiment: Test B flooded paddy test; details: Flood, scale 0 to 100
How it was run: as §2

[12] = system: umbrella sedge (Cyperus difformis); experiment: Test B flooded paddy test; details: Flood, scale 0 to 100
How it was run: as §2

[13] = system: barnyardgrass (Echinochloa crus-galli); experiment: Test B flooded paddy test; details: Flood, scale 0 to 100
How it was run: as §2

wild oat (Avena fatua) = experiment: Test B postemergence; details: scale 0 to 100 (0 no effect, 100 complete control)
How it was run: as §1

[14] = system: blackgrass (Alopecurus myosuroides); experiment: Test B postemergence; details: scale 0 to 100 (0 no effect, 100 complete control)
How it was run: as §1

[15] = 62 g ai/ha, scale 0 to 100 (0 no effect, 100 complete control)
[16] = 125 g ai/ha, scale 0 to 100 (0 no effect, 100 complete control)
[17] = 62 g ai/ha, scale 0 to 100, 0 no effect, 100 complete control

Question: With `CCCCOC(=O)c1nc(C2CC2)nc(N)c1Cl` [Compound 76] as the compound, how does the “Corn plant response rating” value (corn (Zea mays); [15]) read?
Answer: The value was 50.

Question: What about the “Corn plant response rating” value (corn (Zea mays); [16]) of the same compound?
Answer: The value was 70.

Question: And the “Plant response rating, Corn” value (corn (Zea mays); [17])?
Answer: The value was 70.

Question: What about the “Plant response rating, Corn” value (corn (Zea mays); [16]) of the same compound?
Answer: The value was 80.

Question: What about the “Velvetleaf plant response rating” value [1, 15] of the same compound?
Answer: The value was 90.

Question: And the “Velvetleaf plant response rating” value [1, 16]?
Answer: Its value is 90.

Question: And the “Plant response rating, Velvetleaf” value [1, 17]?
Answer: Its value is 80.

Question: And the “Plant response rating, Velvetleaf” value [1, 16]?
Answer: The value was 90.

Question: And the “Cocklebur plant response rating” value [2, 15]?
Answer: The value was 60.

Question: And the “Cocklebur plant response rating” value [2, 16]?
Answer: The value was 90.

Question: And the “Plant response rating, Cocklebur” value [2, 17]?
Answer: The value was 80.

Question: And the “Plant response rating, Cocklebur” value [2, 16]?
Answer: The value was 100.

Question: And the “Pigweed plant response rating” value [3, 15]?
Answer: The value was 90.

Question: What about the “Pigweed plant response rating” value [3, 16] of the same compound?
Answer: The value was 100.

Question: What about the “Plant response rating, Pigweed” value [3, 17] of the same compound?
Answer: Its value is 100.

Question: What about the “Plant response rating, Pigweed” value [3, 16] of the same compound?
Answer: Its value is 100.

Question: What about the “Lambsquarters plant response rating” value [4, 15] of the same compound?
Answer: Its value is 100.

Question: And the “Lambsquarters plant response rating” value [4, 16]?
Answer: The value was 100.

Question: What about the “Plant response rating, Lambsquarters” value [4, 17] of the same compound?
Answer: Its value is 90.

Question: What about the “Plant response rating, Lambsquarters” value [4, 16] of the same compound?
Answer: The value was 100.

Question: What about the “Crabgrass plant response rating” value [5, 15] of the same compound?
Answer: The value was 70.

Question: And the “Crabgrass plant response rating” value [5, 16]?
Answer: Its value is 90.

Question: And the “Plant response rating, Crabgrass” value [5, 17]?
Answer: The value was 80.

Question: And the “Plant response rating, Crabgrass” value [5, 16]?
Answer: The value was 90.

Question: What about the “Surinam Grass plant response rating” value [6, 15] of the same compound?
Answer: The value was 70.

Question: What about the “Surinam Grass plant response rating” value [6, 16] of the same compound?
Answer: Its value is 80.

Question: What about the “Plant response rating, Surinam Grass” value [6, 17] of the same compound?
Answer: The value was 70.

Question: What about the “Plant response rating, Surinam Grass” value [6, 16] of the same compound?
Answer: The value was 90.

Question: What about the “Morningglory plant response rating” value [7, 15] of the same compound?
Answer: The value was 100.

Question: What about the “Morningglory plant response rating” value [7, 16] of the same compound?
Answer: Its value is 100.

Question: And the “Plant response rating, Morningglory” value [7, 17]?
Answer: The value was 100.

Question: And the “Plant response rating, Morningglory” value [7, 16]?
Answer: The value was 100.

Question: And the “Barnyardgrass plant response rating” value [8, 15]?
Answer: The value was 90.

Question: What about the “Barnyardgrass plant response rating” value [8, 16] of the same compound?
Answer: The value was 90.

Question: What about the “Plant response rating, Barnyardgrass” value [8, 17] of the same compound?
Answer: Its value is 40.

Question: What about the “Plant response rating, Barnyardgrass” value [8, 16] of the same compound?
Answer: The value was 90.

Question: What about the “Foxtail, Giant plant response rating” value [9, 15] of the same compound?
Answer: Its value is 60.

Question: What about the “Foxtail, Giant plant response rating” value [9, 16] of the same compound?
Answer: The value was 80.

Question: And the “Plant response rating, Foxtail, Giant” value [9, 17]?
Answer: The value was 40.

Question: And the “Plant response rating, Foxtail, Giant” value [9, 16]?
Answer: The value was 80.

Question: And the “Wheat plant response rating” value [10, 15]?
Answer: Its value is 60.

Question: What about the “Wheat plant response rating” value [10, 16] of the same compound?
Answer: Its value is 70.

Question: And the “Plant response rating, Wheat” value [10, 17]?
Answer: The value was 30.

Question: What about the “Plant response rating, Wheat” value [10, 16] of the same compound?
Answer: Its value is 70.

Question: What about the “Plant response rating, Ducksalad” value ([11]; 125 g ai/ha) of the same compound?
Answer: Its value is 0.

Question: And the “Plant response rating, Ducksalad” value ([11]; 500 g ai/ha)?
Answer: The value was 70.

Question: And the “Plant response rating, Rice” value (rice (Oryza sativa); 125 g ai/ha)?
Answer: Its value is 0.

Question: And the “Plant response rating, Rice” value (rice (Oryza sativa); 500 g ai/ha)?
Answer: Its value is 50.

Question: What about the “Plant response rating, Sedge, Umbrella” value ([12]; 125 g ai/ha) of the same compound?
Answer: Its value is 30.

Question: What about the “Plant response rating, Sedge, Umbrella” value ([12]; 500 g ai/ha) of the same compound?
Answer: Its value is 70.

Question: What about the “Plant response rating, Barnyardgrass” value ([13]; 125 g ai/ha) of the same compound?
Answer: The value was 0.

Question: What about the “Plant response rating, Barnyardgrass” value ([13]; 500 g ai/ha) of the same compound?
Answer: Its value is 70.

Question: And the “Oat, Wild plant response rating” value (wild oat (Avena fatua); 62 g ai/ha)?
Answer: Its value is 50.

Question: What about the “Oat, Wild plant response rating” value (wild oat (Avena fatua); 125 g ai/ha) of the same compound?
Answer: Its value is 60.

Question: And the “Blackgrass plant response rating” value ([14]; 62 g ai/ha)?
Answer: The value was 50.

Question: And the “Blackgrass plant response rating” value ([14]; 125 g ai/ha)?
Answer: The value was 60.

Reference: patent publication US8802597B2, “Herbicidal pyrimidines” (E I du Pont de Nemours and Company, priority 2003, dated 2014)
